Data on 16 compounds can be found in US11040028B2, “Penicinotam derivative, preparation method and use thereof” (OCEAN UNIVERSITY OF CHINA, priority 2017, dated 2021).

Each structure is given as a SMILES string.

What all share (type): cell-based
Assay [1] relates to human fibrosarcoma cells HT-1080. The experiment in a line: Anti-fibrosis activity test: inhibition of proliferation of human fibrosarcoma cells HT-1080 (CCK-8). The conditions noted are these: Homo sapiens, HT-1080, 48 h, human fibrosarcoma cells HT-1080, CCK-8, 48 hours. The method in brief:
(§1)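 IC50 values derive from CCK-8 absorbance (450 nm, 2 h reagent incubation) measured after a 48 h exposure to test compounds. Before dosing, cells plated at 2×10^4 cells/mL had attached for 24 h under 5% CO2 at 37° C; triplicate wells per concentration.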

In assay [2] the test system is human hepatic stellate cells LX-2. As to the kind of experiment: Anti-fibrosis activity test: inhibition of proliferation of human hepatic stellate cells LX-2 (CCK-8). The conditions noted are these: Homo sapiens, 48 h, human hepatic stellate cells LX-2, CCK-8, 48 hours. The method in brief: as §1
The next assay concerns BHK-21 cells. As to the kind of experiment: Anti-fibrosis activity test: inhibition of BHK-21 cell proliferation (CCK-8). The conditions noted are these: Mesocricetus auratus, BHK-21, 48 h, CCK-8, 48 hours after administration. The essentials:
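Cells plated 2×10^4 cells/mL; 24 h attach; compound dilutions, triplicate, 48 h, 37° C/5% CO2; CCK-8 2 h; A450; IR = (1−Ai/Ao)×100%; IC50 by curve fit.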

Assay [3] relates to human lung fibroblasts HFL1. The experiment in a line: Anti-fibrosis activity test: inhibition of proliferation of human lung fibroblasts HFL1 (CCK-8). The following applies: Homo sapiens, HFL1, 48 h, human lung fibroblasts HFL1, CCK-8, 48 hours. The essentials:
as §1

In assay [4] the test system is mouse macrophages (RAW264.7). As to the kind of experiment: Lipopolysaccharide-induced NO secretion in macrophages (Griess). The conditions noted are these: Mus musculus, RAW264.7, 24 h, RAW264.7, LPS 1 μg/ml, a/b isomers given as first/second symbol, read-out: IC50 (μM), inhibition of lipopolysaccharide-induced NO secretion in macrophages. The method, then: The effects of the compounds of the present application on the lipopolysaccharide-induced NO secretion in macrophage was tested Principle: Anti-inflammatory drug activity screening is to detect the inhibitory effect of compounds on NO production in the mouse macrophages (RAW264.7). When immune cells are stimulated by microbial endotoxin, inflammatory mediators, etc., a large amount of induced NO synthase (iNOS) is produced, and thus NO is generated for immune response. Accordingly, the inhibition of NO production can serve as a direct indicator of the anti-inflammatory activity of the compound. The activity of the compound to inhibit NO production at the cellular level is directly evaluated in the abovementioned test model, thereby reflecting the anti-inflammatory activity of the compound. In this experiment, the content of NO in the medium was detected by Gris kit (Molecular probes, G-7921). Macrophages (Raw264.7) were cultured in DMEM medium containing 10% fetal bovine serum, with the cell concentration adjusted. The cells were seeded in 24-well cell culture plates, cultured in an incubator, and the test samples in different concentrations were added every other day. The blank medium was used as a blank control, and commercially available indomethacin and resveratrol were employed as positive controls. After the addition of lipopolysaccharide (LPS, 1 μg/ml), incubation was performed for 24 hours. Then the supernatant culture solution was taken, to […] reagent was added, and the absorbance value was measured by a microplate reader at 548 nm. Inhibition rate=([…])×100%.
On the technique in general: Griess reagent forms a coloured azo dye with nitrite.

For assay [5], the system named is human dermal fibroblasts CCC-ESF-1. As to the kind of experiment: Anti-fibrosis activity test: inhibition of proliferation of human dermal fibroblasts CCC-ESF-1 (CCK-8). The conditions noted are these: Fibroblast; human dermal fibroblasts CCC-ESF-1, CCK-8, 48 hours. The essentials:
as §1

The subject of assay [6] is cardiac fibroblast RAT-iCell-C002. As to the kind of experiment: Anti-fibrosis activity test: inhibition of proliferation of cardiac fibroblast RAT-iCell-C002 (CCK-8). The conditions noted are these: Cardiac fibroblast, 48 h, cardiac fibroblast RAT-iCell-C002, CCK-8, 48 hours. The essentials:
as §1

The test system of assay [7] is human embryonic lung fibroblast IMR-90. As to the kind of experiment: Anti-fibrosis activity test: inhibition of proliferation of human embryonic lung fibroblast IMR-90 (CCK-8). The conditions noted are these: human embryonic lung fibroblast IMR-90, CCK-8, 48 hours. The essentials: as §1

What is called IC50 is the concentration that gives 50% inhibition. With `C=CCn1c2c(c(=O)c3cc(F)ccc31)C(=O)n1cccc1-2` [Compound 109a, 4-Allyl-7-fluoro-9H-pyrrolizino[1,2-b]quinoline-9,10(4H)-dione], the IC50 in assay [1] fell in the range of 0.05 to 5 mM; in assay [2] it was 0.05 to 5 mM; with BHK-21 cells it was 0.05 to 5 mM; in assay [3] it was 0.05 to 5 mM; in assay [4] it was 0.1 to 1 µM; in assay [5], 0.05 to 5 mM. Also, the values for the IC50 in assay [6] and in assay [7] were 0.05 to 5 mM and < 0.05 mM, respectively.

On to `C=CCOc1c2c(nc3ccc(F)cc13)-c1cccn1C2=O` [Compound 109b, 9-(allyloxy)-7-fluoro-10H-pyrrolizino[1,2-b]quinolin-10-one], for which the IC50 in assay [1] is 0.05 to 5 mM; in assay [2] it was 0.05 to 5 mM; in the assay with BHK-21 cells, 0.05 to 5 mM; in assay [3] it was 0.05 to 5 mM; in assay [4], 0.1 to 1 µM; in assay [5] it was 0.05 to 5 mM. For the same compound, the 50% inhibitory concentration (IC50) in assay [6] and in assay [7] was 0.05 to 5 mM each time.

Take `O=C1c2c(n(CCO)c3ccc(F)cc3c2=O)-c2cccn21` [Compound 114a, 7-Fluoro-4-(2-hydroxyethyl)-9H-pyrrolizino[1,2-b]quinoline-9,10(4H)-dione]: the IC50 was 0.05 to 5 mM in assay [1]; 0.05 to 5 mM in assay [2]; < 0.05 mM in the assay on BHK-21 cells; 0.05 to 5 mM in assay [3]; 1 to 10 µM in assay [4]; 0.05 to 5 mM in assay [5]. In addition, the IC50 in assay [6] and in assay [7] was 0.05 to 5 mM in each case.

In the case of `O=C1c2c(nc3ccc(F)cc3c2OCCO)-c2cccn21` [Compound 114b, 7-fluoro-9-(2-hydroxyethoxy)-10H-pyrrolizino[1,2-b]quinolin-10-one], the IC50 in assay [1] fell in the range of 0.05 to 5 mM; in assay [2], 0.05 to 5 mM; with BHK-21 cells it was 0.05 to 5 mM; in assay [3] it was 0.05 to 5 mM; in assay [4], 1 to 10 µM; in assay [5], 0.05 to 5 mM. Moreover, the IC50 in assay [6] and in assay [7] was 0.05 to 5 mM each time.

As to `O=C1c2cc(F)ccc2N(c2ccc(Cl)cc2)C2c3cccn3C(=O)C12` (centres unmarked) [Compound 133a, 4-(4-Chlorophenyl)-7-fluoro-3b,9a-dihydro-9H-pyrrolizino[1,2-b]quinoline-9,10(4H)-dione], the IC50 fell in the range of 0.05 to 5 mM in assay [1]; 0.05 to 5 mM in assay [2]; 0.05 to 5 mM in the assay with BHK-21 cells; 0.05 to 5 mM in assay [3]; 10 to 50 µM in assay [4]; 0.05 to 5 mM in assay [5]. Besides, the IC50 in assay [6] is 0.05 to 5 mM; in assay [7] it was 5 to 20 mM.

As for `O=C1c2c(nc3ccc(F)cc3c2Oc2ccc(Cl)cc2)-c2cccn21` [Compound 133b, 9-(4-chlorophenoxy)-7-fluoro-10H-pyrrolizino[1,2-b]quinolin-10-one], the IC50 lay in the range of 0.05 to 5 mM in assay [1]; 0.05 to 5 mM in assay [2]; 0.05 to 5 mM in the assay on BHK-21 cells; 0.05 to 5 mM in assay [3]; 1 to 10 µM in assay [4]; 0.05 to 5 mM in assay [5]. Moreover, the IC50 in assay [6] and in assay [7] was 0.05 to 5 mM in each case.

As to `O=C1c2c(n(C3CC3)c3ccc(F)cc3c2=O)-c2cccn21` [Compound 144a, 4-Cyclopropyl-7-fluoro-9H-pyrrolizino[1,2-b]quinoline-9,10(4H)-dione], the IC50 in assay [1] was 0.05 to 5 mM; in assay [2] it was < 0.05 mM; in the assay with BHK-21 cells it was 0.05 to 5 mM; in assay [3], 0.05 to 5 mM; in assay [4] it was 1 to 10 µM; in assay [5] it was 0.05 to 5 mM. In addition, the IC50 in assay [6] and in assay [7] was 0.05 to 5 mM in each case.

Take `O=C1c2c(nc3ccc(F)cc3c2OC2CC2)-c2cccn21` [Compound 144b, 9-cyclopropoxy-7-fluoro-10H-pyrrolizino[1,2-b]quinolin-10-one]: the IC50 was 0.05 to 5 mM in assay [1]; < 0.05 mM in assay [2]; 0.05 to 5 mM in the assay on BHK-21 cells; 0.05 to 5 mM in assay [3]; 1 to 10 µM in assay [4]; 0.05 to 5 mM in assay [5]. The IC50 in assay [6] and in assay [7] was 0.05 to 5 mM throughout.

For `O=C1c2c(n(C(=O)c3ccco3)c3ccc(F)cc3c2=O)-c2cccn21` [Compound 150a, 7-Fluoro-4-(furan-2-carbonyl)-9H-pyrrolizino[1,2-b]quinoline-9,10(4H)-dione], the IC50 in assay [1] was 0.05 to 5 mM; in assay [2], 0.05 to 5 mM; in the assay on BHK-21 cells, 0.05 to 5 mM; in assay [3] it was 0.05 to 5 mM; in assay [4], 1 to 10 µM; in assay [5], 0.05 to 5 mM. Also, the IC50 is 0.05 to 5 mM in assay [6] and < 0.05 mM in assay [7].

For the compound `O=C(Oc1c2c(nc3ccc(F)cc13)-c1cccn1C2=O)c1ccco1` [Compound 150b, 7-fluoro-10-oxo-10H-pyrrolizino[1,2-b]quinolin-9-yl furan-2-carboxylate], the IC50 is 0.05 to 5 mM in assay [1]; < 0.05 mM in assay [2]; 0.05 to 5 mM in the assay on BHK-21 cells; 0.05 to 5 mM in assay [3]; 1 to 10 µM in assay [4]; 0.05 to 5 mM in assay [5]. In addition, the IC50 in assay [6] and in assay [7] was 0.05 to 5 mM throughout.

Consider `O=C(O)Cn1c2c(c(=O)c3cc(F)ccc31)C(=O)n1cccc1-2` [Compound 153a, 2-(7-Fluoro-9,10-dioxo-9H-pyrrolizino[1,2-b]quinolin-4(10H)-yl)acetic acid], for which the IC50 in assay [1] was 0.05 to 5 mM; in assay [2], < 0.05 mM; with BHK-21 cells, < 0.05 mM; in assay [3], 0.05 to 5 mM; in assay [4] it was 1 to 10 µM; in assay [5] it was 0.05 to 5 mM. Moreover, the IC50 in assay [6] and in assay [7] was 0.05 to 5 mM each time.

Consider `O=C(O)COc1c2c(nc3ccc(F)cc13)-c1cccn1C2=O` [Compound 153b, 2-((7-fluoro-10-oxo-10H-pyrrolizino[1,2-b]quinolin-9-yl)oxy)acetic acid], for which the IC50 lay within 0.05 to 5 mM in assay [1]; 0.05 to 5 mM in assay [2]; 0.05 to 5 mM in the assay on BHK-21 cells; 0.05 to 5 mM in assay [3]; 1 to 10 µM in assay [4]; 0.05 to 5 mM in assay [5]. For the same compound, the IC50 in assay [6] and in assay [7] was 0.05 to 5 mM each time.

Take `O=C1c2c([nH]c3ccc(F)cc3c2=O)-c2cccn21` [Compound 156a, 7-Fluoro-9H-pyrrolizino[1,2-b]quinoline-9,10(4H)-dione]: the IC50 is 0.05 to 5 mM in assay [1]; < 0.05 mM in assay [2]; 0.05 to 5 mM with BHK-21 cells; < 0.05 mM in assay [3]; 1 to 10 µM in assay [4]; 0.05 to 5 mM in assay [5]. Besides, the IC50 in assay [6] and in assay [7] was 0.05 to 5 mM throughout.

Consider `O=C1c2c(nc3ccc(F)cc3c2O)-c2cccn21` [Compound 156b, 7-fluoro-9-hydroxy-10H-pyrrolizino[1,2-b]quinolin-10-one], for which the half-inhibitory concentration (IC50) in assay [1] is 0.05 to 5 mM; in assay [2], 0.05 to 5 mM; in the assay with BHK-21 cells it was 0.05 to 5 mM; in assay [3], < 0.05 mM; in assay [4], 0.1 to 1 µM; in assay [5], 0.05 to 5 mM. In addition, the IC50 in assay [6] and in assay [7] was 0.05 to 5 mM throughout.

Take `O=C1c2c([nH]c3ccc(Cl)cc3c2=O)-c2cccn21` [Compound 180a, 7-Chloro-9H-pyrrolizino[1,2-b]quinoline-9,10(4H)-dione]: the IC50 in assay [1] is 0.05 to 5 mM; in assay [2] it was 0.05 to 5 mM; in the assay on BHK-21 cells, 20 to 100 mM; in assay [3] it was 0.05 to 5 mM; in assay [4], 1 to 10 µM; in assay [5] it was 0.05 to 5 mM. The IC50 in assay [6] and in assay [7] was 0.05 to 5 mM each time.

Regarding `O=C1c2c(nc3ccc(Cl)cc3c2O)-c2cccn21` [Compound 180b, 7-chloro-9-hydroxy-10H-pyrrolizino[1,2-b]quinolin-10-one], the half-inhibitory concentration (IC50) in assay [1] lay in the range of 0.05 to 5 mM; in assay [2], 0.05 to 5 mM; with BHK-21 cells it was 0.05 to 5 mM; in assay [3], 0.05 to 5 mM; in assay [4], 1 to 10 µM; in assay [5], 0.05 to 5 mM. Also, the IC50 in assay [6] and in assay [7] was 0.05 to 5 mM each time.
